From patent US11666056B2, “Methods and compositions for control of arthropod pests” (GREENLIGHT BIOSCIENCES, INC., priority 2019, dated 2023)

How the values were obtained:
[1] = Measured pH of preservative working solutions and of tested formulations; format: physicochemical
Protocol: Separate working solutions of sodium benzoate and potassium sorbate are prepared in citric buffer (pH 5.3) and pH is measured as shown in Table 3.
Five formulations (Table 7) using the citric buffer of Example 1A and the preservatives of Example 1B were tested to determine the stability of the trigger nucleic acid molecule (SEQ ID NO: 1) in a) only sucrose (control); b) sucrose with preservatives; c) sucrose and citric buffer; d) sucrose with equal amounts of each preservative in citric buffer; and e) sucrose with sodium benzoate to potassium sorbate in a 1:0.5 ratio in citric buffer.
Four additional formulations were created to test the ability of sodium benzoate alone to protect a dsRNA from degradation. Sodium benzoate was prepared in a solution with a pH of 4.5.

[2] = citric buffer (pH 5.3)
[3] = preservative 50 mg/mL in citric buffer (pH 5.3)

pH ([1]; preservative 100 mg/mL in citric buffer) | Compound | pH [1, 3] | solubility in citric buffer [2] | pH ([1]; preservative 100 mg/mL in ddH2O)
5.7 | O=C([O-])c1ccccc1.[Na+] [Sodium Benzoate] | 5.47 | – | –
– | C/C=C/C=C/C(=O)[O-].[K+] [Potassium Sorbate] | 6.13 | low solubility | 8.8
